Experiments:
GLP-1R = biological target: T1, GLP-1R (Homo sapiens, UniProt P43220); assay: GLP-1R agonistic effect in GLP1R-cAmp-Luc cells (luciferase reporter; titled 'Enzymatic assay'); assay type: cell-based; conditions: for EC50: 4 hours incubation, firefly luciferin signal
T1 construct: expressed in transfected cells
Summary of the method: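 GLP1R-cAmp-Luc cells were exposed for 4 h at 37 °C to seven 5-fold dilutions starting at 125 nM final. Luciferin (150 µg/mL working) was then added for 30 min at room temperature, and the luciferase signal was read. EC50 came from the concentration–response curve.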

[1] = In vivo pharmacokinetic assay in mice; conditions: mouse; ICR mice (female), oral gavage 10 mg/kg, plasma
Protocol: Experimental animals: ICR mice (female, 22-25 g), purchased from Beijing Vital River Laboratory Animal Technology Co., Ltd.
Experimental procedure: ICR mice were administered the test compounds by gavage. Whole blood samples of the mice were collected at 15 min, 0.5 h, 1 h, 2 h, 4 h, 8 h and 24 h after administration and centrifuged to isolate plasma. The compound concentration was measured by LC-MS/MS, and pharmacokinetic parameters such as Area Under the Concentration-Time Curve (AUC) were calculated using Winnolin software.
Oral gavage dose: 10 mg/kg.
Measurement method: Quantitative analysis was carried out in the LC/MS/MS system after pretreatment with a protein precipitation method.

hERG channel = hERG channel (Homo sapiens, UniProt Q12809); assay: hERG test, automated patch-clamp in CHO cells stably expressing hERG; assay type: cell-based; conditions: hERG current inhibition, 0.37-30 µM, n = 2
Protocol: The potential inhibitory effects of the test compounds on the hERG channel were assessed using an automated patch-clamp system. In this study, the CHO cell line stably expressing the hERG gene was used, with Cisapride as the positive control.
The CHO-hERG-DUO cell line stably expressing the hERG channel was purchased from B'SYS GmbH. The cells were cultured in F12 (HAM) medium supplemented with 10%FBS, 100 U/mL penicillin-streptomycin, 100 µg/mL hygromycin, and 100 µg/mL G418. The cells were passaged three times per week and maintained at about 80% confluence.
The test compounds were dissolved in DMSO to prepare stock solutions at a final concentration of 10 mM; the stock solution was then serially diluted with DMSO in a 1: 3 ratio (3.33 mM, 1.11 mM and 0.37 mM); and the final concentrations of the test compounds were 30 µM, 10 µM, 3.33 µM, 1.11 µM and 0.37 µM.
A baseline was established using the blank vehicle. […] The hERG current was recorded for no less than 5 minutes to reach a steady state, and then 5 scans were captured. […] The experiments were performed in duplicate (n = 2) and hERG current inhibition by five concentrations of the compound were measured to determine the IC50.
The percent current inhibition was calculated using the following equation. […]
The IC50 was calculated using Graphpad Prism 8.0.

T1 sequence (P43220 24-463, species assumed): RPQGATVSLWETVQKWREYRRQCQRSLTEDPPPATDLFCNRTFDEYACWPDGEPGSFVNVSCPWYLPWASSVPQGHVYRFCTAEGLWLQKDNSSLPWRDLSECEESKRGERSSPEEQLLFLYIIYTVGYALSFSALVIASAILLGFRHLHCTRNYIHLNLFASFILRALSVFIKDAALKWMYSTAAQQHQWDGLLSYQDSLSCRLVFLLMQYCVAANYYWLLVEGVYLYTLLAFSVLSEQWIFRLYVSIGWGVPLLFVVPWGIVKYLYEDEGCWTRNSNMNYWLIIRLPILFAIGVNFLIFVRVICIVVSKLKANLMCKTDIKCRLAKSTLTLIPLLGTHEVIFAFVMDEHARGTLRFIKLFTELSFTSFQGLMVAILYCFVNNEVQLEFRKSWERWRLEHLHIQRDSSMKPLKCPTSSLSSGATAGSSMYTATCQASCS
hERG channel, sequence (Q12809 whole entry): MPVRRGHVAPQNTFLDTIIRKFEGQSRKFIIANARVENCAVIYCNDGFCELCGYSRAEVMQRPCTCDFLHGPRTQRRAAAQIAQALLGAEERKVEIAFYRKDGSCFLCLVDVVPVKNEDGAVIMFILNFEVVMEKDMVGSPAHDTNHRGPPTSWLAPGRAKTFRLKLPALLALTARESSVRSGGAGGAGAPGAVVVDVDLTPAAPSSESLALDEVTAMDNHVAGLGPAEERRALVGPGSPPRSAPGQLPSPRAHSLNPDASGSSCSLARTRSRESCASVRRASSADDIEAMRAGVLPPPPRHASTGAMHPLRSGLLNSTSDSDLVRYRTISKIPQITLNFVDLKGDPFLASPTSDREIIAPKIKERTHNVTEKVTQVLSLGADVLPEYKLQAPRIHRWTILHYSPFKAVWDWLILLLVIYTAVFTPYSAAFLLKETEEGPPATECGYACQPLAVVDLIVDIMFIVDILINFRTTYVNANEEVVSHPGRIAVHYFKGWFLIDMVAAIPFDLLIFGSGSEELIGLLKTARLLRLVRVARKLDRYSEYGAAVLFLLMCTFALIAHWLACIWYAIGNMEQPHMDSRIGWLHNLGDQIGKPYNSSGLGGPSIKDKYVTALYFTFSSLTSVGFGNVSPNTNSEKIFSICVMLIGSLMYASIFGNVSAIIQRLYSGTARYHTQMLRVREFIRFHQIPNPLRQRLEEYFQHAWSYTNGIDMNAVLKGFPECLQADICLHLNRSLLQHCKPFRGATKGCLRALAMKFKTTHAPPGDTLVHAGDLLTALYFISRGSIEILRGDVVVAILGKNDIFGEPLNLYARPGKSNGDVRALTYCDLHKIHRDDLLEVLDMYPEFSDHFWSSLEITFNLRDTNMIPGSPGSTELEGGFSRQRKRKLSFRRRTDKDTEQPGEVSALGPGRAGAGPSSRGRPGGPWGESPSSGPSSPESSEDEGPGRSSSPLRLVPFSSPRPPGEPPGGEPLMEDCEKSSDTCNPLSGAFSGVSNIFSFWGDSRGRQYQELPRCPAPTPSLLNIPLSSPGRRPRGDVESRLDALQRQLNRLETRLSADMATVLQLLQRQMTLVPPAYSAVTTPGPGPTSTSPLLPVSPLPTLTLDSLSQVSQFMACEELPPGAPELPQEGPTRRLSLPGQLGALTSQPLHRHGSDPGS

SMILES: COc1cc(C(=O)O)cc2c1nc(Cc1c(F)cc(-c3cccc(OCc4ccc(Cl)cc4OC(F)F)n3)c3c1CCO3)n2CC1(CF)CC1 [Compound 87, 2-((7-(6-((4-Chloro-2-(difluoromethoxy)benzyl)oxy)pyridin-2-yl)-5-fluoro-2,3-dihydrobenzofuran-4-yl)methyl)-1-((1-(fluoromethyl)cyclopropyl)methyl)-4-methoxy-1H-benzo[d]imidazole-6-carboxylic acid]
- EC50 (GLP-1R): ≤ 1 nM
- AUC(0-t) [1]: 12200 ng·h/mL
- IC50 (hERG channel; CHO-hERG-DUO cells): > 30 µM

SMILES: COc1cc(C(F)(F)F)ccc1COc1cccc(-c2cc(F)c(Cc3nc4ccc(C(=O)O)cc4n3C[C@@H]3CCO3)c3c2OCC3)n1 [Compound 71, (S)-2-((5-fluoro-7-(6-((2-methoxy-4-(trifluoromethyl)benzyl)oxy)pyridin-2-yl)-2,3-dihydrobenzofuran-4-yl)methyl)-1-(oxetan-2-ylmethyl)-1H-benzo[d]imidazole-6-carboxylic acid]
- EC50 (GLP-1R): ≤ 1 nM
- EC50 of Positive reference / EC50 of Compound of the Present Application (GLP-1R; Positive reference is PF-06882961): Ratio ≥10
- IC50 (hERG channel; human, CHO-hERG-DUO cells stably expressing hERG): > 30 µM

Source: EP4748839A1 (CSPC Zhongqi Pharmaceutical Technology (Shijiazhuang) Co., …, priority 2023, dated 2025)
